# Source: patent US20260008775A1, “AZOLE MODULATORS OF CHOLESTEROL BIOSYNTHESIS AND THEIR USE FOR PROMOTING REMYELINATION” (GENENTECH, INC., priority 2022, published 2026)
# How the values were obtained:
# [1] = system: zymostenol accumulation (EBP) in EpiSC-derived OPCs; assay: GC/MS-based sterol profiling, zymostenol accumulation in EpiSC-derived OPCs; type: cell-based, mouse; details: Mus musculus, 24 h, EpiSC-derived OPCs, 24 hr, 8 doses from 0.15 nM to 333 nM; read-out: Mouse Zymostenol GCMS EC50
# Procedure: (§1) To assess effects of treatments on OPCs, all treatments were assayed in two or more independent platings of epiblast stem cell-derived OPCs (EpiSC). EpiSC-derived OPCs were obtained using in vitro differentiation protocols and culture conditions described previously (Najm et al, 2011, Nature Methods). OPCs were expanded and frozen down in aliquots. OPCs were thawed into growth conditions for at least one passage before use in further assays.
# Sterols were monitored using a modified Folch wash protocol (Hubler et al, 2018, Nature). EpiSC-derived OPCs were plated at 100,000 cells per well in PO- and laminin-coated 96-well plates in N2B27 media without growth factors. After 24 hours, cells were rinsed with saline and plates were frozen. Cholesterol-d7 standard was then added to each well before drying under nitrogen stream and derivatization with 55 μl of bis(trimethylsilyl) trifluoroacetamide. After derivatization, 2 μl were analyzed by gas chromatography/mass spectrometry using an Agilent 5973 Network Mass Selective Detector equipped with a 6890 gas chromatograph system and a HP-5MS capillary column (30 m×0.25 mm×[…]). Samples were analyzed in full scan mode using electron impact ionization; ion fragment peaks were integrated to calculate sterol abundance, and quantitation was relative to cholesterol-d7. The following ion fragments were used to quantitate each metabolite: cholesterol-d7 (465), FF-Mas (482), cholesterol (368), zymostenol (458), zymosterol (456), Desmosterol (456, 343), 7-dehydrocholesterol (456, 325), lanosterol (393), lathosterol (458), 14-dehydrozymostenol (456, 351). […] All standards were obtained from Avanti Polar Lipids unless otherwise indicated. Calibration curves were generated by injecting varying concentrations of sterol standards and maintaining a fixed amount of cholesterol-D7. For normalized zymostenol accumulation results, the total amount of zymostenol measured after drug treatment was divided by the total amount of zymostenol accumulated after 24 hr treatment with 100 nM positive control reference.
# [2] = system: EpiSC-derived OPCs; assay: In vitro phenotypic screening of OPCs, MBP high-content imaging (percentage of oligodendrocytes); type: cell-based, mouse; details: for EC50: Mus musculus, 72 h, 3 days, MBP stain, dose-response 0.5 nM to 1000 nM, read-out: OPC EC50
# Procedure: as §1
# EpiSC-derived OPCs were grown and expanded in poly-L-ornithine (PO) and laminin-coated flasks in N2B27 media (DMEM/F12 (Gibco), N2-MAX (R&D Systems), B-27 (ThermoFisher), and GlutaMax (Gibco)) supplemented with FGF2 (10 μg/mL, R&D systems, 233-FB-025) and PDGF-AA (10 μg/mL, R&D systems, 233-AA-050) before harvesting for experiments. The cells were seeded onto poly-L-ornithine or poly-D-lysine coated CellCarrier Ultra plates (PerkinElmer) coated with laminin (Sigma, L2020) at a density of 150,000/cm^2 in N2B27 media without growth factors. For dose-response testing, a 1000× compound stock in dimethyl sulphoxide (DMSO) was added to assay plates, resulting in 8-point dose curves with final concentrations between 1000 nM and 0.5 nM. Positive controls and DMSO vehicle controls were included in each assay plate. Cells were incubated under standard conditions (37° C., 5% CO2) for 3 days and fixed with 4% paraformaldehyde (PFA) in phosphate buffered saline (PBS) for 20 min. Fixed plates were washed with PBS, permeabilized with 0.1% Triton X-100, and blocked with 10% donkey serum (v/v) in PBS for 40 min. Then, cells were labelled with MBP antibodies (Abcam, ab7349; 1:200) for 2 h at room temperature, washed with PBS, and stained with Alexa Fluor conjugated secondary antibodies (1:500) for 45 min. Nuclei were visualized by DAPI staining (Sigma; […]), followed by further PBS washes.
# Cells and cell culture plates were imaged on the Operetta High Content Imaging and Analysis system (PerkinElmer). Analysis (PerkinElmer Harmony and Columbus software) began by identifying intact nuclei stained by DAPI. The peri-nuclear region of each cell was then cross-referenced with the mature myelin protein (MBP) stain to identify oligodendrocyte nuclei, and from this the percentage of oligodendrocytes was calculated. EC50 values were calculated using The Levenberg-Marquardt algorithm to fit a Hill equation to dose-response data (0.5 nM to 1000 nM).
# [3] = biological target: human emopamil binding protein and human 7-dehydrocholesterol reductase (hEBP-DHCR7) (Homo sapiens (Human), UniProt Q15125); assay: hEBP-DHCR7 radioligand binding assay (filter binding, membranes of co-expressing HEK293 cells); details: competition with [3H] radioligand, 8 doses 0.06 to 5000 nM, Ki calculated from IC50
# human emopamil binding protein and human 7-dehydrocholesterol reductase (hEBP-DHCR7), sequence (Q15125 whole entry): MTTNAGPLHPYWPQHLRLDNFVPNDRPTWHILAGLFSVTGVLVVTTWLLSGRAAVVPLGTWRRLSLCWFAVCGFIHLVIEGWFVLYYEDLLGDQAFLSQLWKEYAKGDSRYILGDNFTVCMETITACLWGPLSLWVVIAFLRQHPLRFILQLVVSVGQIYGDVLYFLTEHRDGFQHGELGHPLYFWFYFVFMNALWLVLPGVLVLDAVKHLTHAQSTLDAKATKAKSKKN
# Procedure: Membrane Preparation: human emopamil binding protein and human 7-dehydrocholesterol reductase co-expressing cells were generated by transient transfecting host human embryonic kidney (HEK) 293 cells with 2 DNA constructs containing each protein's coding sequence. Cells were suspension cultured at 37° C. with 5% CO2 in […] 293 Expression Medium (Thermofisher). Whole cell membrane was prepared by harvesting the cell pellet, adding cold membrane buffer (50 mM Tris, pH7.5, 1× Roche COMPLETE EDTA-free protease inhibitor cocktail) 10 times volume of the cell pellets weight, lysing cell pellet on ice by using Dounce homogenizer, spinning at 200 g 4° C. for 15 min, collecting supernatant and spinning again at 25000 g 4° C. for 50 min, transferring pellet to Dounce homogenizer, re-suspending pellet by homogenizing in membrane buffer on ice to reach ˜25 mg/mL, then keeping whole cell membrane aliquots at −80° C.
# Compounds were prepared in a 96-well U bottom plate (Corning Cat #7007) using an Echo550 machine and 10 mM compound DMSO stock solution, followed by an 8-dose 5-fold serial dilutions protocol with final testing compound concentration ranging from 0.06 to 5000 nM, with DMSO back fill to 100 nL/well and n=2. […] The UniFilter-96 GF/B plates (PerkinElmer Cat #6005177) were pre-treated by adding 50 μl/well of 0.3% (v/v) Polyethylenimine (PEI) (branched, Sigma Cat #408727) to UniFilter-96 GF/B plates. The plates were sealed and incubated at 4° C. for 3 hrs. Then, the plates were washed with ice-cold assay buffer 3 times. The radioligand binding assay was prepared by adding assay buffer diluted hEBP-DHCR7 membrane at 66.7 µg/ml×150 μl/well into the 96-well compound plate to reach 10 μg membrane per well. Then, the assay buffer diluted [3H]—(S)-6-(2-Methyl-3-(6-(trifluoromethyl)pyridin-3-yl)propyl)-2-thia-6-azaspiro[3.4]octane 2,2-dioxide (Moravek, Cat #MT-1003106) was added at 25 nM×50 μl/well. Following this, the plate was centrifuged at 1000 rpm for 30 secs. The plate was then sealed and agitated at 600 rpm at 22° C. for 5 min, and then incubated at 22° C. for 3 hrs. The incubation was stopped by transferring the binding solution to the pre-treated UniFilter-96 GF/B plate, vacuum filtrated, and then washed four times with ice-cold assay buffer. Following this, the plates were dried at 37° C. for 45 min. The plates were then sealed at the bottom. 40 µl/well of scintillation cocktail was added to the plates. A MicroBeta2 microplate counter was then used to read the plate and analyze the data. For reference and test compounds, the results are expressed as % Inhibition, using the normalization equation: N=100−100×(U−C2)/(C1−C2), where U is the unknown value, C1 is the average of high controls, and C2 is the average value of low controls.
Compound,EC50 [1] [nM],EC50 [2] [nM],Ki [3] [nM],fold decrease in activity in the OPC assay ([2]; as compared to compound 171) [fold]
"CC(C)n1nc(-c2cccc(C(F)(F)F)n2)nc1[C@@H]1CCC(N2CCOCC2)C1 (stereo in doubt) [25*, 4-((1R,3R)-3-(1-isopropyl-3-(6-(trifluoromethyl)pyridin-2-yl)-1H-1,2,4-triazol-5-yl)cyclopentyl)morpholine]",234,65.5,–,–
"CC(C)n1nc(-c2cccc(C(F)(F)F)c2)nc1[C@H]1[C@@H]2C[C@@H](N3CCOCC3)C[C@@H]21 [20*, 4-((1R,3s,5S,6r)-6-(1-isopropyl-3-(3-(trifluoromethyl)phenyl)-1H-1,2,4-triazol-5-yl)bicyclo[3.1.0]hexan-3-yl)morpholine]",64,232,–,–
CC(C)n1nc(-c2cncc(C(F)(F)F)c2)cc1[C@H]1[C@@H]2C[C@@H](N3CCOCC3)C[C@@H]21 [Cmpd 202],236,723,–,–
"CC(C)n1nc(-c2cccc(C(F)(F)F)c2)nc1[C@H]1[C@@H]2C[C@H](N3CCCOCC3)C[C@@H]21 [Compound 13, 4-((1R,3r,5S,6r)-6-(1-isopropyl-3-(3-(trifluoromethyl)phenyl)-1H-1,2,4-triazol-5-yl)bicyclo[3.1.0]hexan-3-yl)-1,4-oxazepane]",1.48,3.18,–,–
"CC[C@@H]1CN([C@@H]2CC[C@H](c3nc(-c4cnc(C(F)(F)F)c(F)c4)nn3C(C)C)C2)CCO1 [Compound 146, (R)-2-Ethyl-4-((1R,3S)-3-(3-(5-fluoro-6-(trifluoromethyl)pyridin-3-yl)-1-isopropyl-1H-1,2,4-triazol-5-yl)cyclopentyl)morpholine]",0.94,–,11.3,–
"CC[C@H]1CN([C@@H]2CC[C@H](c3nc(-c4cnc(C(F)(F)F)c(F)c4)nn3C(C)C)C2)CCO1 [Compound 147, (S)-2-Ethyl-4-((1R,3S)-3-(3-(5-fluoro-6-(trifluoromethyl)pyridin-3-yl)-1-isopropyl-1H-1,2,4-triazol-5-yl)cyclopentyl)morpholine]",14.5,–,1740,–
"CC(C)n1nc(-c2cnc(C(F)(F)F)nc2)nc1[C@@H]1CC[C@H](N2CCO[C@H](C)C2)C1 [Compound 148, (R)-4-((1S,3R)-3-(1-Isopropyl-3-(2-(trifluoromethyl)pyrimidin-5-yl)-1H-1,2,4-triazol-5-yl)cyclopentyl)-2-methylmorpholine]",13.4,–,22.2,–
"CC(C)n1nc(-c2cnc(C(F)(F)F)nc2)nc1[C@@H]1CC[C@@H](N2CCO[C@H](C)C2)C1 [Compound 149, (R)-4-((1R,3R)-3-(1-Isopropyl-3-(2-(trifluoromethyl)pyrimidin-5-yl)-1H-1,2,4-triazol-5-yl)cyclopentyl)-2-methylmorpholine]",129,–,68.3,–
"CC(C)n1nc(-c2cnc(C(F)(F)F)nc2)nc1[C@@H]1CC[C@H](N2CCO[C@@H](C)C2)C1 [Compound 150, (S)-4-((1S,3R)-3-(1-Isopropyl-3-(2-(trifluoromethyl)pyrimidin-5-yl)-1H-1,2,4-triazol-5-yl)cyclopentyl)-2-methylmorpholine]",946,–,3540,–
"CC(C)n1nc(-c2cnc(C(F)(F)F)nc2)nc1[C@@H]1CC[C@@H](N2CCO[C@@H](C)C2)C1 [Compound 151, (S)-4-((1R,3R)-3-(1-Isopropyl-3-(2-(trifluoromethyl)pyrimidin-5-yl)-1H-1,2,4-triazol-5-yl)cyclopentyl)-2-methylmorpholine]",129,–,505,–
"CC[C@@H]1CN([C@@H]2CC[C@@H](c3nc(-c4cnc(C(F)(F)F)nc4)nn3C(C)C)C2)CCO1 [Compound 153, (R)-2-Ethyl-4-((1R,3R)-3-(1-isopropyl-3-(2-(trifluoromethyl)pyrimidin-5-yl)-1H-1,2,4-triazol-5-yl)cyclopentyl) morpholine]",13.4,–,58.2,–
"CC[C@H]1CN([C@H]2CC[C@@H](c3nc(-c4cnc(C(F)(F)F)nc4)nn3C(C)C)C2)CCO1 [Compound 154, (S)-2-Ethyl-4-((1S,3R)-3-(1-isopropyl-3-(2-(trifluoromethyl)pyrimidin-5-yl)-1H-1,2,4-triazol-5-yl)cyclopentyl)morpholine]",221,–,465,–
"CC[C@H]1CN([C@@H]2CC[C@@H](c3nc(-c4cnc(C(F)(F)F)nc4)nn3C(C)C)C2)CCO1 [Compound 155, (S)-2-Ethyl-4-((1R,3R)-3-(1-isopropyl-3-(2-(trifluoromethyl)pyrimidin-5-yl)-1H-1,2,4-triazol-5-yl)cyclopentyl) morpholine]",305,–,465,–
"CC[C@@H]1CN([C@@H]2CC[C@H](c3nc(-c4ccc(C(F)F)nc4)nn3C(C)C)C2)CCO1 [Compound 156, (R)-4-((1R,3S)-3-(3-(6-(Difluoromethyl)pyridin-3-yl)-1-isopropyl-1H-1,2,4-triazol-5-yl)cyclopentyl)-2-ethylmorpholine]",4.07,–,43.8,–
"CC(C)n1nc(-c2cnc(N)c(C(F)(F)F)c2)cc1[C@H]1[C@@H]2C[C@H](N3CCOCC3)C[C@@H]21 [Compound B, reference compound]",–,692,–,41.7
